# Results as given in PMC12332164, “Synthesis and biological activity study of tanshinone I-pyridinium salt derivatives” (Natural Products and Bioprospecting, 2025).
# Target: T1, PI3Kα (Homo sapiens, UniProt P42336)
# T1 construct: gene PIK3CA
# Assay: biochemical
# T1 sequence (P42336 whole entry): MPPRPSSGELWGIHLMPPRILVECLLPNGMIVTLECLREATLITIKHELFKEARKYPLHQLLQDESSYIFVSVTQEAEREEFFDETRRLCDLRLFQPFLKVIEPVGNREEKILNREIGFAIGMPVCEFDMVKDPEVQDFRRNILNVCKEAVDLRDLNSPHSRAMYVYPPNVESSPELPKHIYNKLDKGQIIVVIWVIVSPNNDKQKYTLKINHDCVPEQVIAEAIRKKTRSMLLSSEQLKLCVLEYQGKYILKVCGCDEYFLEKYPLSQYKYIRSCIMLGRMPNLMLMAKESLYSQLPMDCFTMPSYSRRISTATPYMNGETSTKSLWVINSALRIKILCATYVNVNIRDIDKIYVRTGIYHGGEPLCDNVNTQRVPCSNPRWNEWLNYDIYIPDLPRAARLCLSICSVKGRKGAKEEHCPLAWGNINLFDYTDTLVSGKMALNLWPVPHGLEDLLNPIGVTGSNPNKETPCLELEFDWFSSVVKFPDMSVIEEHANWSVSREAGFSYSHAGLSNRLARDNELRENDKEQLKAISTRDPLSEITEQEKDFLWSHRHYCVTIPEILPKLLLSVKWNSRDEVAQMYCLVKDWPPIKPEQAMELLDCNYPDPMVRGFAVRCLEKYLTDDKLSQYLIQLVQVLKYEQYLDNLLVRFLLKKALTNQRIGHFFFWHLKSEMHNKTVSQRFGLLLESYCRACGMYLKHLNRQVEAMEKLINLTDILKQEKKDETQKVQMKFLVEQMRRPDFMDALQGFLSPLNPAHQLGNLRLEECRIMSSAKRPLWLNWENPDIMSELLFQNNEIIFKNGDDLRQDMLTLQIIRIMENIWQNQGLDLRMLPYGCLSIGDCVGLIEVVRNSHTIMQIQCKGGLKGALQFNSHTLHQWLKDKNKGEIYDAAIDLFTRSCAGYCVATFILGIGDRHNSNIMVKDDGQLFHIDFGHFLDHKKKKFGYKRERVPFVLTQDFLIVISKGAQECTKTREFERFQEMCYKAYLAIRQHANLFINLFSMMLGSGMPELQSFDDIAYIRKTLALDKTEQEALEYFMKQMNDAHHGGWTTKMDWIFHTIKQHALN
# T1 sequence (P27986 2-724, further chain): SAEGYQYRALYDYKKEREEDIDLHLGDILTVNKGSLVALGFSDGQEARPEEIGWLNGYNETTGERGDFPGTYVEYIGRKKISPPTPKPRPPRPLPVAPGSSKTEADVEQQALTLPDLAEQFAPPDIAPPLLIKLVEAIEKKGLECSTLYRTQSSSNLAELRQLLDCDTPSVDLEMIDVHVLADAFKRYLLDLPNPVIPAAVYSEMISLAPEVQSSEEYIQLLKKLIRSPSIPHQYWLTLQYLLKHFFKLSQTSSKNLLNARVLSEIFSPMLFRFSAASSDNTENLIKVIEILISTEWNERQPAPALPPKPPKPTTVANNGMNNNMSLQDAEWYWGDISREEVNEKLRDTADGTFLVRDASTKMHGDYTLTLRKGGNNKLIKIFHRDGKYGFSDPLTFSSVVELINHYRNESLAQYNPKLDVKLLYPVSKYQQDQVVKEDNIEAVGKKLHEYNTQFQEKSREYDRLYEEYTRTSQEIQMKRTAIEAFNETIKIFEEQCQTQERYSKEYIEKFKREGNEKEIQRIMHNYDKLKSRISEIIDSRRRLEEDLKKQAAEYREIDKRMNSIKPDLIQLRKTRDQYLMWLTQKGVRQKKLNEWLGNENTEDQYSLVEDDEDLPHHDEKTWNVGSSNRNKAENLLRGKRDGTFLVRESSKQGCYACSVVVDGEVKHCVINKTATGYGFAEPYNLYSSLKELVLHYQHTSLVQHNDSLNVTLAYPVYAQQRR
smiles,measurement,value
"Cc1cccc2c1ccc1c3occ(C)c3c3[nH]c(-c4ccc[n+](CC(=O)c5ccc(Br)cc5)c4)nc3c21 [a4, 1-(2-(4-bromophenyl)-2-oxoethyl)-3-(1,6-dimethyl-12H-furo[2',3':1,2]phenanthro[3,4-d]imidazol-11-yl) pyridin-1-ium bromide]",IC50,9.24 ± 0.2 µM
